In series [1] the test system is P. falciparum stage V female gametocytes. In words: P. falciparum female gametocyte activation assay (Pf FGAA), 24 h or 48 h preincubation, Pfs25 expression readout. Conditions: mean, read-out: Gametocytes mean Pf FGAA IC50. It counts as cell-based, Plasmodium falciparum NF54. The method in brief: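 Purified stage V gametocytes from P. falciparum NF54 gametocyte cultures were exposed to compounds for 24 h or 48 h at 37 °C under 3% O2/5% CO2, then activated by temperature drop plus xanthurenic acid. Activated females were stained with Cy3-anti-Pfs25 (0.5 μg ml^−1) for 24 h at 26 °C and counted by high-content imaging; pIC50 by nonlinear regression.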

Series [2] deals with P. falciparum stages IV–V gametocytes. In words: Gametocytocidal ATP-depletion assay (gametocyte ATP bioluminescence). In kind it is cell-based, Plasmodium falciparum. The method in brief: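 Purified stage IV–V gametocytes (12,500/well) incubated with compound for 48 h at 37 °C under 3% O2/5% CO2. ATP measured by BacTiter-Glo luminescence as a viability surrogate; hits tested at 2 μM single concentration.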

In the next series the test system is HepG2 cells. In words: HepG2 cytotoxicity assay. It counts as cell-based. A digest of the protocol: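 After compound incubation, plates and CellTiter-Glo reagent were brought to room temperature for 30 min. The reagent was then added, and luminescence was read after a 10 min room-temperature stabilization.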
In series [3] the test system is P. falciparum asexual blood stages. The settings on record: read-out: Pf Asexual blood stages XC50, cited from earlier work.
The mark [4] stands for this setting: P. falciparum female gametocytes.
[5] abbreviates: TCAMS asexual blood stage data, ref 1 (Gamo, F. J. et al., Nature 465, 305-310, 2010).
Where [6] appears, read: TCAMS data, ref 1 (Gamo et al., 2010).
[7] abbreviates: P. falciparum female gametocyte activation assay.

The structures appear in SMILES notation. pIC50: −log10 of the molar value. Like-named read-outs stand apart in the source and are kept apart here.

Data on 25 compounds can be found in paper PMC5442318, “Hundreds of dual-stage antimalarial molecules discovered by a functional gametocyte screen” (Nature Communications, 2017).

Take `C[C@H](Cc1ccc(C[C@@H](C)NC[C@H](O)c2cccc(Cl)c2)cc1)NC[C@H](O)COc1ccccc1.Cl` [TCMDC-131549]: the results for the pIC50 in series [1] (setting [4]) and in series [3] (setting [5]) were 5.86 and 5.93, respectively. The “Gametocytes mean ATP inhibition at 2µM” value in series [2] turned out to be 20.38%. For the same compound, the “HepG2 cells mean TOX50” value with HepG2 cells (HepG2 cells; mean) is 5.19 µM.

Take `CC(C)c1ccc(CN2CCC(CNC(=O)c3cc(-c4ccc(N(C)C)cc4)cs3)C2)cc1.O=C(O)C(F)(F)F` (stereo not shown) [TCMDC-134440]: the pIC50 was 6.15 in series [1] (setting [4]) and 5.90 in series [3] (setting [5]). The “Gametocytes mean ATP inhibition at 2µM” value in series [2] is -6.60%. Also, in the series with HepG2 cells (HepG2 cells; mean), the “HepG2 cells mean TOX50” value is listed as 5.85 µM.

As to `COc1ccc2ccc(OC)c(CNCCCCCCNCc3c(OC)ccc4ccc(OC)cc34)c2c1.CS(=O)(=O)O` [TCMDC-137796], the pIC50 is 5.92 in series [1] and 6.15 in series [3] (setting [6]). The “Gametocytes mean ATP inhibition at 2µM (%)” value in series [2] turned out to be 68.84%. Moreover, the “HepG2 cells mean TOX50” value with HepG2 cells (mean) is given as 3.31 µM.

For `Clc1ccc(Nc2nc3ccc(Cl)cc3nc2Nc2ccc(Cl)cc2)cc1` [TCMDC-137772], the pIC50 is 5.72 in series [1] and 6.89 in series [3] (setting [6]). The “Gametocytes mean ATP inhibition at 2µM (%)” value in series [2] is on record as 27.62%. The “HepG2 cells mean TOX50” value in the series with HepG2 cells (mean) is listed as 7.86 µM.

For `Fc1ccc2[nH]c(-c3cccc(-c4ccc(CN5CCC(CCN6CCCCC6)CC5)cc4)c3)nc2c1.O=C(O)C(F)(F)F` [TCMDC-133940], the results for the pIC50 in series [1] (setting [4]) and in series [3] (setting [5]) were 5.73 and 6.85, respectively. For the same compound, in series [2], the “Gametocytes mean ATP inhibition at 2µM” value is -4.48%. Also, the “HepG2 cells mean TOX50” value with HepG2 cells (HepG2 cells; mean) is 4.79 µM.

Regarding `Cc1cccc(Nc2nc(N[C@@H]3CCCNC3)nc3cc[nH]c(=O)c23)c1.O=C(O)C(F)(F)F` [TCMDC-134835], the pIC50 in series [1] (setting [4]) was 5.73; in series [3] (setting [5]), 6.17. Moreover, in series [2], the “Gametocytes mean ATP inhibition at 2µM” value is on record as -27.53%. Besides, the “HepG2 cells mean TOX50” value in the series with HepG2 cells (HepG2 cells; mean) is 3.25 µM.

With `CC(C)Cn1cc(C2CCN(CCN3CCC(CNC(=O)c4ccc(-c5ccc(C(F)(F)F)cc5)cc4)CC3)CC2)c2ccccc21` [TCMDC-138852], the pIC50 in series [1] was 6.06; in series [3] (setting [6]), 6.12. For the same compound, the “Gametocytes mean ATP inhibition at 2µM (%)” value in series [2] is recorded as 30.37%. In addition, the “HepG2 cells mean TOX50” value with HepG2 cells (mean) stood at 4.80 µM.

Consider `C=C[C@H]1CN(CCCCCCC)CC[C@H]1CCNc1ccnc2ccc(OC)cc12` [TCMDC-139204], for which the pIC50 is 5.74 in series [1] and 7.22 in series [3] (setting [6]). In addition, in series [2], the “Gametocytes mean ATP inhibition at 2µM (%)” value is reported as 31.13%. Also, in the series on HepG2 cells (mean), the “HepG2 cells mean TOX50” value is 2.24 µM.

With `CCCCCCCN1CC[C@@H](CCCc2ccnc3ccc(OCCN4CCNCC4)cc23)[C@@H](CC)C1.Cl` [TCMDC-139817], the pIC50 in series [1] is 5.73; in series [3] (setting [6]), 6.11. The “Gametocytes mean ATP inhibition at 2µM (%)” value in series [2] is listed as 8.71%. For the same compound, the “HepG2 cells mean TOX50” value in the series on HepG2 cells (mean) came out at 4.90 µM.

Turning to `O=C(Nc1ccc(Cl)cc1)c1cc(Cl)cc2nc(C(F)(F)F)[nH]c12` [TCMDC-141586], the pIC50 in series [1] (setting [7]) was 5.77; in series [3] (setting [5]), 6.89. Moreover, in series [2], the “Gametocytes mean ATP inhibition at 2µM” value came to 39.06%. Also, the “HepG2 cells mean TOX50” value in the series on HepG2 cells (mean; HepG2 cells) is 2.82 µM.

In the case of `CS(=O)(=O)O.FC(F)(F)COc1ccc2ccccc2c1CCNCCCCNCCc1c(OCC(F)(F)F)ccc2ccccc12` [TCMDC-137317], the pIC50 was 6.00 in series [1] and 6.37 in series [3] (setting [6]). Besides, in series [2], the “Gametocytes mean ATP inhibition at 2µM (%)” value is 88.24%. Also, the “HepG2 cells mean TOX50” value in the series with HepG2 cells (mean) was determined as 2.09 µM.

Consider `Fc1cc(Cl)ccc1Nc1ccnc2cc(-c3ccc(CN4CCOCC4)o3)ccc12` [TCMDC-138393], for which the pIC50 in series [1] and in series [3] (setting [6]) was 6.19 in each case. For the same compound, the “Gametocytes mean ATP inhibition at 2µM (%)” value in series [2] turned out to be 87.52%. For the same compound, the “HepG2 cells mean TOX50” value with HepG2 cells (mean) is 5.62 µM.

With `CC(C)c1ccc(CN2CCC(CNC(=O)c3cc(-c4ccccc4F)cs3)C2)cc1.O=C(O)C(F)(F)F` (stereo not shown) [TCMDC-134436], the pIC50 in series [1] (setting [4]) is 5.97; in series [3] (setting [5]), 6.00. In addition, the “Gametocytes mean ATP inhibition at 2µM” value in series [2] is listed as -11.71%. Further, the “HepG2 cells mean TOX50” value in the series on HepG2 cells (HepG2 cells; mean) is on record as 9.14 µM.

Turning to `CN(C)c1ccc(-c2csc(C(=O)NCC3CCN(Cc4ccc(C(C)(C)C)cc4)C3)c2)cc1.O=C(O)C(F)(F)F` (stereo not shown) [TCMDC-134449], the pIC50 in series [1] (setting [4]) is 6.22; in series [3] (setting [5]), 6.00. The “Gametocytes mean ATP inhibition at 2µM” value in series [2] was -20.17%. Also, in the series on HepG2 cells (HepG2 cells; mean), the “HepG2 cells mean TOX50” value is on record as 7.24 µM.

In the case of `CN(CCCCN)Cc1ccc(-c2ccc(Cl)cc2)cc1` [TCMDC-140123], the figures for the pIC50 in series [1] and in series [3] (setting [6]) were 5.80 and 6.06, respectively. In series [2], the “Gametocytes mean ATP inhibition at 2µM (%)” value was found to be 17.75%. Moreover, the “HepG2 cells mean TOX50” value with HepG2 cells (mean) was determined as 3.55 µM.

Take `Clc1ccc(/N=C(/NCCCCCCCN/C(=N\c2ccc(Cl)cc2)Nc2ccc(Cl)cc2)Nc2ccc(Cl)cc2)cc1` [TCMDC-137529]: the figures for the pIC50 in series [1] and in series [3] (setting [6]) were 6.24 and 6.49, respectively. The “Gametocytes mean ATP inhibition at 2µM (%)” value in series [2] was 15.83%. The “HepG2 cells mean TOX50” value with HepG2 cells (mean) was 2.00 µM.

As to `CCn1c2ccccc2c2cc(C=NN=c3cc(C)[nH]c4ccccc34)ccc21` [TCMDC-142186], the pIC50 in series [1] (setting [7]) is 5.38; in series [3] (setting [5]), 6.51. For the same compound, the “Gametocytes mean ATP inhibition at 2µM” value in series [2] was 36.64%. The “HepG2 cells mean TOX50” value with HepG2 cells (mean; HepG2 cells) came out at 5.82 µM.

Consider `Cl.Nc1c2c(nc3ccc(NC(=O)CCCCCCc4ccccc4)cc13)CCCC2` [TCMDC-139056], for which the pIC50 is 5.62 in series [1] and 6.60 in series [3] (setting [6]). In series [2], the “Gametocytes mean ATP inhibition at 2µM (%)” value is -10.66%. Also, in the series with HepG2 cells (mean), the “HepG2 cells mean TOX50” value was 5.42 µM.

Consider `Cl.Nc1c(I)cc(C(=O)Nc2ccc3nc4c(c(N)c3c2)CCCC4)cc1I` [TCMDC-142289], for which the pIC50 was 6.11 in series [1] (setting [7]) and 6.85 in series [3] (setting [5]). In addition, in series [2], the “Gametocytes mean ATP inhibition at 2µM” value worked out at 70.94%. Moreover, the “HepG2 cells mean TOX50” value in the series on HepG2 cells (mean; HepG2 cells) was determined as 4.52 µM.

As for `CC(C)(CN)c1cc(-c2ccc(Cl)c(O)c2)c(-c2ccncc2)o1.Cl` [TCMDC-141334], the pIC50 in series [1] (setting [7]) is 6.38; in series [3] (setting [5]) it was 5.94. In series [2], the “Gametocytes mean ATP inhibition at 2µM” value is reported as -5.00%. Moreover, the “HepG2 cells mean TOX50” value with HepG2 cells (mean; HepG2 cells) worked out at 9.98 µM.

As for `N=C(/N=C(/NCCCCCCN/C(=N/C(=N)NCc1ccc(Cl)c(Cl)c1)N1CCCCC1)N1CCCCC1)NCc1ccc(Cl)c(Cl)c1` [TCMDC-131816], the results for the pIC50 in series [1] (setting [4]) and in series [3] (setting [5]) were 5.58 and 6.24, respectively. Moreover, the “Gametocytes mean ATP inhibition at 2µM” value in series [2] came out at 67.07%. In the series on HepG2 cells (HepG2 cells; mean), the “HepG2 cells mean TOX50” value is 43.18 µM.

With `CCc1c(CCNCCCCCCNCCc2ccc([N+](=O)[O-])cc2)ccc(OC)c1OC.Cl` [TCMDC-132066], the pIC50 in series [1] (setting [4]) was 5.84; in series [3] (setting [5]), 6.14. Also, the “Gametocytes mean ATP inhibition at 2µM” value in series [2] is recorded as 24.70%. Further, the “HepG2 cells mean TOX50” value with HepG2 cells (HepG2 cells; mean) was 4.57 µM.

`COc1cc2c(cc1CCNCCCCNCCc1cc3c(cc1OC)CCCC3)CCCC2.CS(=O)(=O)O` [TCMDC-137319]: the pIC50 in series [1] is 6.05; in series [3] (setting [6]), 6.00. Besides, in series [2], the “Gametocytes mean ATP inhibition at 2µM (%)” value worked out at 88.42%. For the same compound, the “HepG2 cells mean TOX50” value with HepG2 cells (mean) came out at 1.86 µM.

With `Cn1c(Sc2ncnc3sccc23)nc2ccccc21` [TCMDC-124514], the pIC50 is 5.90 in series [1] (setting [4]) and 6.72 in series [3] (setting [5]). In addition, the “Gametocytes mean ATP inhibition at 2µM” value in series [2] is reported as 17.03%. The “HepG2 cells mean TOX50” value in the series with HepG2 cells (HepG2 cells; mean) is recorded as more than 100 µM.

Turning to `COc1ccc2c(OC)c(CNCCCCCCNCc3ccc4cc(OC)ccc4c3OC)ccc2c1.CS(=O)(=O)O` [TCMDC-137953], the pIC50 in series [1] was 6.00; in series [3] (setting [6]), 6.04. Besides, the “Gametocytes mean ATP inhibition at 2µM (%)” value in series [2] turned out to be 2.77%. In addition, the “HepG2 cells mean TOX50” value in the series on HepG2 cells (mean) was found to be 2.11 µM.
